According to PubChem BioAssay AID1033 (Sanford-Burnham Center for Chemical Genomics, 2008):
The source made the active and inactive calls. No rule for the calls is given here.

These compounds were tested against Chaperone protein DnaK (Escherichia coli (strain K12)) (UniProt P0A6Y8) (assay: binders of DnaK substrate-binding domain, biophysical, NMR, chaperone (AID 1033)). Details: Purified DnaK SBD, NMR ligand binding.
Chain of Chaperone protein DnaK (Escherichia coli (strain K12)) (P0A6Y8 whole entry, looked up, the tested form may be a part): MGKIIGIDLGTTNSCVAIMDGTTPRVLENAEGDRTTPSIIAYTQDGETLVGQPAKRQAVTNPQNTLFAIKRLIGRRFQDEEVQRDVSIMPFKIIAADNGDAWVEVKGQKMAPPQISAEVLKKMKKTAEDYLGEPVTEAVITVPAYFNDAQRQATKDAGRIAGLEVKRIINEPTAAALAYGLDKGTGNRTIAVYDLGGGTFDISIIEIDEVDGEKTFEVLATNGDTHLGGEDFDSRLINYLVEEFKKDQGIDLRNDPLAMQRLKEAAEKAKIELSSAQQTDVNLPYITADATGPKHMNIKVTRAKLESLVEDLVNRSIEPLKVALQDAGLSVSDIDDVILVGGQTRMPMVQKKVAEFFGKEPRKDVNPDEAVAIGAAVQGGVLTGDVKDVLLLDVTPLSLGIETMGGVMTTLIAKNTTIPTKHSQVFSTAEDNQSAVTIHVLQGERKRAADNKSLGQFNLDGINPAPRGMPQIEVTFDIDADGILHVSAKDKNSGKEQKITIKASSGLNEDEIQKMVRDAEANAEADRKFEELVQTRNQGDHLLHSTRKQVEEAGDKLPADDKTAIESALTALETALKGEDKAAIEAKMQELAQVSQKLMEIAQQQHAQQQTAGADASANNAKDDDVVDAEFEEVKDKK
`Cn1c(=O)c2cn3ncccc3c2n(C)c1=O` was tested, and the Kd was > 4 mM (inactive).
In the case of `CC1=C2[C@H]3OC(=O)[C@@H](C)[C@@H]3CC[C@@]2(C)C=CC1=O`, the Kd was > 4 mM (inactive).
`Cc1nc(-c2ccccc2)ncc1C(=O)O` was tested, and the Kd was > 4 mM (inactive).
With `Cc1c(C)[n+]([O-])c(-c2ccc([N+](=O)[O-])cc2)n1O` the Kd was > 4 mM (inactive).
With `NC(=O)c1cccc2c1OCCO2` the Kd was > 4 mM (inactive).
With `O=c1c(Cl)c(NCCO)ncn1-c1ccccc1` the Kd was > 4 mM (inactive).
With `Nc1ccc(Oc2ccccc2)nc1` the Kd was > 4 mM (inactive).
In the case of `CCN1CCc2c(sc(N)c2C#N)C1`, the Kd was > 4 mM (inactive).
In the case of `Cn1cccc1C(=O)NS(=O)(=O)c1ccccc1Cl`, the Kd was > 4 mM (inactive).
For `CN1CCCC1C(=O)O` (configuration not stated), the Kd was > 4 mM (inactive).
For `Cc1cc(NC(=O)NCCCSc2nncn2C)no1`, the Kd was > 4 mM (inactive).
`O=c1ccc2c([nH]1)CCCC2` was tested, and the Kd was > 4 mM (inactive).
With `COC1=C(OC)C(=O)C(C/C=C(\C)CC/C=C(\C)CC/C=C(\C)CC/C=C(/C)CC/C=C(\C)CC/C=C(\C)CC/C=C(\C)CC/C=C(\C)CC/C=C(\C)CCC=C(C)C)=C(C)C1=O` the Kd was > 4 mM (inactive).
In the case of `CC(=O)O[C@@H]1CC2C(C)(C)[C@H](O)CC[C@]2(C)C2CC[C@@]3(C)[C@H](c4ccoc4)OC(=O)C4OC43[C@@]21C` (some centres not stated), the Kd was > 4 mM (inactive).
In the case of `O=C(Nc1ccc(F)cc1F)c1ccco1`, the Kd was > 4 mM (inactive).
`O=C1CSC(=Nc2cccc(C(F)(F)F)c2)N1` was tested, and the Kd was > 4 mM (inactive).
With `CCOC(=O)C1C(C=C(C)C)C1(C)C` (configuration not stated) the Kd was > 4 mM (inactive).
`N#Cc1c[nH]n2c(=O)cc(Cc3ccccc3)nc12` was tested, and the Kd was > 4 mM (inactive).
`Cc1nc2ccc(C(=O)O)cc2[nH]1` was tested, and the Kd was > 4 mM (inactive).
`CC(C)Oc1ccc(C2CC(=O)NNC2=O)cc1` (configuration not stated) was tested, and the Kd was > 4 mM (inactive).
In the case of `Fc1ccc(-c2n[nH]c(=S)n2CC2CCCO2)cc1` (configuration not stated), the Kd was > 4 mM (inactive).
With `CCn1cnc2scc(-c3ccccc3)c2c1=O` the Kd was > 4 mM (inactive).
In the case of `S=C(Nc1ccccc1)Nc1nncs1`, the Kd was > 4 mM (inactive).
For `Cc1ccccc1NC(=O)c1ocnc1C`, the Kd was > 4 mM (inactive).
`CN1CCN(C2CCN(Cc3ccccc3)CC2)CC1` was tested, and the Kd was > 4 mM (inactive).
With `CC(CO)NC(=O)C1C=C2c3cccc4[nH]cc(c34)C[C@H]2N(C)C1` (some centres not stated) the Kd was > 4 mM (inactive).
For `COC1=CC(=O)C(O)=C/C1=C\C=C\c1ccccc1`, the Kd was > 4 mM (inactive).
`O=C(CSc1ncnc2ccccc12)NCCCO` was tested, and the Kd was > 4 mM (inactive).
In the case of `CC1(C)Cc2c(c(-c3ccco3)[nH]c(=O)c2C#N)CO1`, the Kd was > 4 mM (inactive).
In the case of `COc1ccc(C)cc1S(N)(=O)=O`, the Kd was > 4 mM (inactive).
With `COc1ccc2cc3[n+](cc2c1OC)CCc1cc2c(cc1-3)OCO2` the Kd was > 4 mM (inactive).
In the case of `COc1ccc(C(=O)CC(=O)O)c2c1C=CC(C)(C)O2`, the Kd was > 4 mM (inactive).
In the case of `O=C1CNC(=O)N1Cc1ccc(F)cc1`, the Kd was > 4 mM (inactive).
In the case of `Cc1ccc2c(c1)CCCN2C(=O)c1c(C)noc1C`, the Kd was > 4 mM (inactive).
In the case of `O=C(Nc1ccon1)c1cccc(C(F)(F)F)c1`, the Kd was > 4 mM (inactive).
In the case of `O=C(NCCO)c1ccccc1I`, the Kd was > 4 mM (inactive).
For `COc1ccc(-c2oc3ccccc3c(=O)c2O)cc1OC`, the Kd was > 4 mM (inactive).
For `NCc1ccc(S(N)(=O)=O)cc1`, the Kd was > 4 mM (inactive).
With `COc1ccc([C@H]2Oc3c(I)c(OC)cc(OC)c3C[C@@H]2O)cc1OC` the Kd was > 4 mM (inactive).
For `NC(=O)C1CCN(CC2CC=CCC2)CC1` (configuration not stated), the Kd was > 4 mM (inactive).
For `CC(=O)Nc1ccccc1OCC(N)=O`, the Kd was > 4 mM (inactive).
`NC(=O)NCCCC(N)C(=O)O` (configuration not stated) was tested, and the Kd was > 4 mM (inactive).
For `CC(=O)N1N=C(N)SC1c1cccnc1` (configuration not stated), the Kd was > 4 mM (inactive).
`O=C(O)C1CN2CCC1CC2` (configuration not stated) was tested, and the Kd was > 4 mM (inactive).
For `C[C@H]1[C@H]2CCC3C4CC=C5C[C@@H](N(C)C)CC[C@]5(C)C4CC[C@@]32CN1C` (some centres not stated), the Kd was > 4 mM (inactive).
In the case of `Cn1c(CNc2ccccc2)cc(=O)n(C)c1=O`, the Kd was > 4 mM (inactive).
In the case of `O=[n+]1cc(C2=CC=CCC2)n([O-])c2c1CCCCC2`, the Kd was > 4 mM (inactive).
For `O=C(O)c1ccc(-c2cccs2)s1`, the Kd was > 4 mM (inactive).
For `CCCCCc1c2c(cc(O)c1C(=O)O)OC(=O)c1c(cc(OC)cc1C(=O)CCCC)O2`, the Kd was > 4 mM (inactive).
`OCn1nnn(-c2ccccc2)c1=S` was tested, and the Kd was > 4 mM (inactive).
In the case of `COc1cc(C(=S)N2CCCC2)cc(Cl)c1O`, the Kd was > 4 mM (inactive).
With `CC(=O)OC[C@@]1(O)C[C@@]23CCC4c5ccoc5CC[C@]4(C)C2CC[C@@H]1C3` (some centres not stated) the Kd was > 4 mM (inactive).
For `NC(=O)c1ccc(N=Cc2ccc[nH]2)cc1`, the Kd was > 4 mM (inactive).
In the case of `O=CN1CCN(C(=O)c2ccccc2F)CC1`, the Kd was > 4 mM (inactive).
In the case of `CCSc1nc(=S)n(CC)c(C)c1C(C)=O`, the Kd was > 4 mM (inactive).
In the case of `CC12CC[C@H](CC1=O)C2(C)C`, the Kd was > 4 mM (inactive).
`Cc1c(N=Cc2ccc[nH]2)c(=O)n(-c2ccccc2)n1C` was tested, and the Kd was > 4 mM (inactive).
With `NC(=O)c1ccc(C(N)=O)cc1` the Kd was > 4 mM (inactive).
With `Cc1nc2ccccc2c(=O)n1-c1cccc(O)c1` the Kd was > 4 mM (inactive).
In the case of `Cc1cc(C)c2ccc[n+]([O-])c2c1O`, the Kd was > 4 mM (inactive).
With `COc1ccc2c(c1)=C(c1sc(N)nc1O)C(=O)N=2` the Kd was > 4 mM (inactive).
`NC(=O)c1ccsc1NC(=O)c1ccccc1[N+](=O)[O-]` was tested, and the Kd was > 4 mM (inactive).
In the case of `Cc1nc(N)sc1C(=O)Nc1nccs1`, the Kd was > 4 mM (inactive).
In the case of `CC(=O)N(c1ccccc1)C1C=CS(=O)(=O)C1` (configuration not stated), the Kd was > 4 mM (inactive).
In the case of `COC(=O)CSc1nnc(-c2ccc(C(=O)O)cc2)o1`, the Kd was > 4 mM (inactive).
With `CC1(c2ccncc2)NC(=O)NC1=O` (configuration not stated) the Kd was > 4 mM (inactive).
With `NC1CSCC1O` (configuration not stated) the Kd was > 4 mM (inactive).
`CC(C)=CCc1c2c(c3occ(-c4ccc(O)cc4)c(=O)c3c1O)C=CC(C)(C)O2` was tested, and the Kd was > 4 mM (inactive).
`CC(C)=NNC(=O)C(=O)Nc1ccc(F)cc1` was tested, and the Kd was > 4 mM (inactive).
For `O=C1C2CC=CCC2C(=O)N1c1cccc(O)c1` (configuration not stated), the Kd was > 4 mM (inactive).
`COc1ccc(-c2coc3cc(O)ccc3c2=O)c(O)c1O` was tested, and the Kd was > 4 mM (inactive).
In the case of `COc1ccc2c(c1)OCC(Cc1ccc(OC)c(OC(C)=O)c1)C2=O` (configuration not stated), the Kd was > 4 mM (inactive).
With `O=C1c2ccccc2C(=O)N1Cc1ccco1` the Kd was > 4 mM (inactive).
In the case of `O=c1c(O)c(-c2ccccc2)oc2ccccc12`, the Kd was > 4 mM (inactive).
For `OC[C@H]1O[C@@H](n2cnc3c(NCc4ccco4)ncnc32)[C@H](O)[C@@H]1O`, the Kd was > 4 mM (inactive).
`CNC(=O)Cn1c(=O)n(C)c2ccccc21` was tested, and the Kd was > 4 mM (inactive).
With `COC(=O)C[C@H]1C(C)(C)C(=O)[C@@H]2CC3=C(CC[C@]4(C)C3=CC(=O)O[C@H]4c3ccoc3)C1(C)C2=O` the Kd was > 4 mM (inactive).
For `O=C(O)C1CSC(c2cccnc2)N1` (configuration not stated), the Kd was > 4 mM (inactive).
`S=C(NC1CC1)NN1CCOCC1` was tested, and the Kd was > 4 mM (inactive).
In the case of `NC(=O)N1CCc2ccccc21`, the Kd was > 4 mM (inactive).
With `CC1(C)CC(NC(=O)/C=C/C(=O)O)CC(C)(C)N1` the Kd was > 4 mM (inactive).
In the case of `NCc1csc(-c2cccs2)n1`, the Kd was > 4 mM (inactive).
In the case of `O=c1cc(-c2cc(O)c(O)c(O)c2)oc2cc(O)cc(O)c12`, the Kd was > 4 mM (inactive).
With `C=C(C)[C@H]1Cc2c(ccc3c2O[C@@H]2COc4cc(OC)c(OC)cc4[C@@H]2C3=O)O1` the Kd was > 4 mM (inactive).
For `Cc1nn2c(=O)c(NC(=O)c3ccccc3)cnc2s1`, the Kd was > 4 mM (inactive).
In the case of `COc1ccc(N2C(=N)C(C)(C)NC2=O)cc1`, the Kd was > 4 mM (inactive).
In the case of `Nc1cc(=O)[nH]c(=O)n1Cc1ccco1`, the Kd was > 4 mM (inactive).
In the case of `Cc1scc(C(=O)Nn2cnnc2)c1-c1ccccc1`, the Kd was > 4 mM (inactive).
In the case of `Nc1ccc(OC(F)(F)F)cc1`, the Kd was > 4 mM (inactive).
`COc1ccc(C[C@H]2NC[C@H](O)[C@H]2OC(C)=O)cc1` was tested, and the Kd was > 4 mM (inactive).
`O=C(NCCO)NC(=S)c1ccccc1` was tested, and the Kd was > 4 mM (inactive).
In the case of `Nc1cc(F)ccc1-n1ccnc1`, the Kd was > 4 mM (inactive).
`CCc1nnsc1C(=O)Nc1nccs1` was tested, and the Kd was > 4 mM (inactive).
For `CSc1nc2cc(F)c(F)cc2n1C`, the Kd was > 4 mM (inactive).
In the case of `Cc1csc(SCC(=O)N2CCCC2)n1`, the Kd was > 4 mM (inactive).
In the case of `Oc1ccccc1N=Cc1cccnc1`, the Kd was > 4 mM (inactive).
`NS(=O)(=O)c1ccc(NC(=O)/C=C\C(=O)O)cc1` was tested, and the Kd was > 4 mM (inactive).
With `CCC(C)OC1CCS(=O)(=O)C1` (configuration not stated) the Kd was > 4 mM (inactive).
`O=C(NCC1CCNCC1)c1ccccn1` was tested, and the Kd was > 4 mM (inactive).
For `COC1=CC(=O)C[C@@H](C)[C@]12Oc1c(Cl)c(OC)cc(OC)c1C2=O`, the Kd was > 4 mM (inactive).
For `O=C(/C=C/C=C/c1ccc2c(c1)OCO2)N1CCCCC1`, the Kd was > 4 mM (inactive).
With `CC(=O)NCC1OCCc2ccccc21` (configuration not stated) the Kd was > 4 mM (inactive).
For `COCc1nn2c(N)c(C#N)cnc2c1-c1ccccc1`, the Kd was > 4 mM (inactive).
With `Cn1ncc(CO)c1-c1ccccc1` the Kd was > 4 mM (inactive).
For `CSc1ccc(/C=c2\sc3ncnn3c2=O)cc1`, the Kd was > 4 mM (inactive).
With `Oc1ccc(-c2n[nH]c(=S)n2Cc2ccco2)cc1` the Kd was > 4 mM (inactive).
With `COC[C@]12CN(C=O)C3[C@@H]4[C@H](OC)C1[C@]3(C1CC3(O)C(OC)C(O)C4(OC(C)=O)C1C3OC(=O)c1ccccc1)[C@@H](OC)C[C@H]2O` (some centres not stated) the Kd was > 4 mM (inactive).
In the case of `Cc1ccc(NC(=O)C(=O)Nc2ccccn2)cc1`, the Kd was > 4 mM (inactive).
`COc1cc2cc3c4cc(OC)c(OC)cc4cc[n+]3c(C)c2cc1OC` was tested, and the Kd was > 4 mM (inactive).
In the case of `OC12CC3CC(C1)C1(NCCS1)C(C3)C2` (configuration not stated), the Kd was > 4 mM (inactive).
In the case of `CC(=O)Nc1ccc(C(=O)NC2=NCCS2)cc1`, the Kd was > 4 mM (inactive).
In the case of `COc1ccc(-c2cc(=O)c3c(OC(C)=O)cc(OC(C)=O)cc3o2)cc1`, the Kd was > 4 mM (inactive).
For `Cc1cc2c(=O)n(C)c(SCC(N)=O)nc2s1`, the Kd was > 4 mM (inactive).
For `OCC1CCN(c2ncccn2)CC1`, the Kd was > 4 mM (inactive).
`O=C1CC(=O)N(c2ccccc2F)C(=S)N1` was tested, and the Kd was > 4 mM (inactive).
For `COCCn1c(C)cc(O)cc1=O`, the Kd was > 4 mM (inactive).
In the case of `O=C1CCCc2c1nc(-c1ccccc1)n2O`, the Kd was > 4 mM (inactive).
